Key:
[1] = Equol productivity of probiotic strains cultured in soybean germ extract (S30); settings: inoculated into 30% isoflavone-containing soybean germ extract (S30), 37° C., 48 hours
Method: A probiotic strain having the ability to produce equol from a soybean germ extract (S30) containing 30 wt % of isoflavone was selected.
First, a soybean germ extract was prepared using 40 g/L of a soybean germ extract (S30, prepared by Seorim Bio) containing 30 wt % of isoflavone and sterile water. The pH of the soybean germ extract was adjusted to 6.7 using 5M NaOH. The entire soybean germ extract was sterilized by autoclaving at 121° C. for 15 minutes. Microorganisms were activated in rehydrated MRS (Mann Rogosa Sharpe) broth (De Mann et al. 1960) at 37° C. for 20 hours three times, followed by fourth activation in the sterile soybean germ extract at an inoculum level of 5% (v/v). 40 to 400 mL of the sterile soybean germ extract was inoculated with the active culture (5% v/v), and incubated at 37° C. for 24 hours to hydrolyze isoflavone glycosides. The strain activated in the soybean germ extract was used.
In addition, samples were taken at regular time intervals in a time-dependent manner and measured for β-glucosidase activity. […] The sequence of the above screening steps was determined flexibly. That is, strains producing equol were first screened, and then β-glucosidase activity was measured, or strains having high β-glucosidase activity were first screened, and then whether the strains produced equol was examined. […]

estrogen receptor (ER) = settings: background statement; cited from earlier work
ERβ = ERβ (Homo sapiens, UniProt Q92731); settings: background statement; cited from earlier work
ERβ, sequence (Q92731 whole entry): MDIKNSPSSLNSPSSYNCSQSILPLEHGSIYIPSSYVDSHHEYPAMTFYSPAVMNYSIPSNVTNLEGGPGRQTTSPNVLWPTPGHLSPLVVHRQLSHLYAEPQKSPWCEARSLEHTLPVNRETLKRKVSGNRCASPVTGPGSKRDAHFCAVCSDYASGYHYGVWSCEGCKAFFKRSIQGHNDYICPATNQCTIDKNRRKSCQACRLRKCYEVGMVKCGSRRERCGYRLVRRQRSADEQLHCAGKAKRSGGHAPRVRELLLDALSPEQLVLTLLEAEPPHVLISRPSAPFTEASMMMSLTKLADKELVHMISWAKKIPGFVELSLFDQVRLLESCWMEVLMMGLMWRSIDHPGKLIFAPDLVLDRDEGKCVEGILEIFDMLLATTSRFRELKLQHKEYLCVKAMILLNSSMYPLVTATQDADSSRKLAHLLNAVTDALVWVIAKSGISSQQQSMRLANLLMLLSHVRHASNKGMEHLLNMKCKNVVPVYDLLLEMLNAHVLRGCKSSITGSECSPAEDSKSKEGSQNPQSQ

| Compound | equol production / equol productivity in culture supernatant [1] | ER binding affinity (estrogen receptor (ER)) | affinity for ERβ (ERβ) |
| --- | --- | --- | --- |
| Bifidobacterium longum | equol was produced | – | – |
| O=c1c(-c2ccc(O)cc2)coc2cc(O)ccc12 [daidzein] | – | exhibits estrogen receptor (ER) binding affinity | – |
| Oc1ccc([C@H]2COc3cc(O)ccc3C2)cc1 [Equol] | – | higher ER binding affinity than daidzein | high affinity for ERβ |
